{
  "source": "patent US4368267A",
  "about": "“Epoxidation of lower α-olefins” (priority 1980, dated 1983)",
  "type_in_all_cases": "cell-based",
  "key": {"[1]": {"tested_on": "Methylosinus sporium 5 (NRRL B-11,197)", "assay": "Methane hydroxylation and alkene epoxidation by washed cell suspensions", "conditions": "methane-grown washed cells, 30° C.", "experimental": "(§1) The pH of the nutrient medium was adjusted to 7.0 by the addition of acid or base and 50 ml aliquots of the nutrient medium was charged into a plurality of 300 ml shake flasks. […] The isolates had been maintained on agar plates under an atmosphere of methane and air having a 1:1 v/v gas ratio which had been transferred every two weeks. The gaseous phase of the inoculated flasks was then replaced with a gas mixture comprised of methane and air having a ratio of 1:1 on a v/v basis. The inoculated flasks were sealed air tight and were incubated on a rotary shaker of orbital radius 2.5 cm at 250 rpm and at 30° C. for two days until the turbidity in the medium had developed.\n(§2) The cells were harvested by centrifugation at 10,000 ×g at 4° C. for 30 minutes. The cell pellet was washed twice with a 0.15 M phosphate buffer at a pH of 7.0 (containing 0.002 M MgCl2). The washed cells were then suspended in a 0.15 M phosphate buffer at pH 7.0.\nA 0.5 ml aliquot of each washed cell suspension (2 mg cells) was put into 10 ml vials at 4° C. which were sealed with a rubber cap. […] It was then incubated at 30° C. on a rotary shaker at 300 rpm. Samples of product (3 μl) were withdrawn periodically with a microsyringe and the products were analyzed by gas chromatography (ionization flame detector column)."}, "[2]": {"tested_on": "Methylocystis parvus OBBP (NRRL B-11,198)", "assay": "Methane hydroxylation and alkene epoxidation by washed cell suspensions", "conditions": "for Ability to hydroxylate methane or epoxidize C2 -C4 alkenes: methanol-grown washed cells", "experimental": "as §1, with “The gaseous phase of the inoculated flasks was then replaced with a gas mixture comprised of methane and air having a ratio of 1:1 on a v/v basis.” left out\nas §2\n(§3) A 0.5 ml aliquot of each washed cell suspension (2 mg cells) was put into 10 ml vials at 4° C. which were sealed with a rubber cap. The gaseous phase of the vials was removed with vacuum and then was replaced with a gas mixture of alkene and oxygen at a 1:1 v/v ratio. It was then incubated at 30° C. on a rotary shaker at 300 rpm. Samples of product (3 μl) were withdrawn periodically with a microsyringe and the products were analyzed by gas chromatography (ionization flame detector column)."}, "[3]": {"tested_on": "Methylomonas methanica S1 (NRRL B-11,199)", "assay": "Methane hydroxylation and alkene epoxidation by washed cell suspensions", "conditions": "for Ability to hydroxylate methane or epoxidize C2 -C4 alkenes: methanol-grown washed cells", "experimental": "as §1, with “The gaseous phase of the inoculated flasks was then replaced with a gas mixture comprised of methane and air having a ratio of 1:1 on a v/v basis.” left out\nas §2, §3"}, "[4]": {"tested_on": "Methylomonas albus BG8 (NRRL B-11,200)", "assay": "Methane hydroxylation and alkene epoxidation by washed cell suspensions", "conditions": "methane-grown washed cells, 30° C.", "experimental": "as §1, §2, §3"}, "[5]": {"tested_on": "Methylobacterium organophilum XX (ATCC 27,886)", "assay": "Methane hydroxylation and propylene epoxidation by washed cell suspensions", "conditions": "methane-grown washed cells, 30° C.", "experimental": "The pH of the nutrient medium was adjusted to 7.0 by the addition of acid or base and 50 ml aliquots of the nutrient medium was charged into a plurality of 300 ml shake flasks. The shake flasks were inoculated with an inoculating loop of cells from an agar plate containing homogeneous colonies of the microorganisms on the plate (the purity of the isolates were confirmed by microscopic examination). The isolates had been maintained on agar plates under an atmosphere of methane and air having a 1:1 v/v gas ratio which had been transferred every two weeks. The gaseous phase of the inoculated flasks was then replaced with a gas mixture comprised of methane and air having a ratio of 1:1 on a v/v basis. The inoculated flasks were sealed air tight and were incubated on a rotary shaker of orbital radius 2.5 cm at 250 rpm and at 30° C. for two days until the turbidity in the medium had developed.\nThe cells were harvested by centrifugation at 10,000 ×g at 4° C. for 30 minutes. The cell pellet was washed twice with a 0.15 M phosphate buffer at a pH of 7.0 (containing 0.002 M MgCl2). […]\nA 0.5 ml aliquot of each washed cell suspension (2 mg cells) was put into 10 ml vials at 4° C. which were sealed with a rubber cap. […] Samples of product (3 μl) were withdrawn periodically with a microsyringe and the products were analyzed by gas chromatography (ionization flame detector column)."}, "[6]": {"tested_on": "Methylococcus capsulatus (CRL M1, NRRL B-11,219)", "assay": "Oxidation/epoxidation by washed cell suspensions"}, "[7]": {"conditions": "methane-grown washed cells, 30° C."}},
  "note": "Values joined by “and” are separate entries in the source; they are usually repeats but may differ in a detail not shown here. Equal values may be shown once.",
  "data": [
    {"smiles": "C", "note": "[Methane]", "values": [
      {"measurement": "Conversion rate, methane hydroxylation (methane to methanol)", "setting": "[1]", "value": "1.1 μmole/hr/mg protein and 1.8 μmole/hr/mg protein"},
      {"measurement": "Conversion rate, methane hydroxylation", "setting": "[2]; [7]", "value": 0.7, "unit": "μmole/hr/mg protein"},
      {"measurement": "Ability to hydroxylate methane or epoxidize C2 -C4 alkenes", "setting": "[2]", "value": "did not possess the ability"},
      {"measurement": "Conversion rate, methane hydroxylation", "setting": "[3]; [7]", "value": 1.3, "unit": "μmole/hr/mg protein"},
      {"measurement": "Ability to hydroxylate methane or epoxidize C2 -C4 alkenes", "setting": "[3]", "value": "did not possess the ability"},
      {"measurement": "Conversion rate, methane hydroxylation", "setting": "[4]", "value": 1.8, "unit": "μmole/hr/mg protein"},
      {"measurement": "Conversion rate, methane hydroxylation", "setting": "[5]", "value": 1.0, "unit": "μmole/hr/mg protein"},
      {"measurement": "Epoxidation Rate, Propylene oxide", "setting": "[6]; Propylene + 5% methane, 1 Hr", "value": 2.0, "unit": "μmoles/0.5 ml"},
      {"measurement": "Epoxidation Rate, Propylene oxide", "setting": "[6]; Propylene + 5% methane, 2 Hr", "value": 4.0, "unit": "μmoles/0.5 ml"},
      {"measurement": "Epoxidation Rate, Propylene oxide", "setting": "[6]; Propylene + 5% methane, 3 Hr", "value": 4.1, "unit": "μmoles/0.5 ml"},
      {"measurement": "Epoxidation Rate, Propylene oxide", "setting": "[6]; Propylene + 7% methane, 1 Hr", "value": 2.3, "unit": "μmoles/0.5 ml"},
      {"measurement": "Epoxidation Rate, Propylene oxide", "setting": "[6]; Propylene + 7% methane, 2 Hr", "value": 4.7, "unit": "μmoles/0.5 ml"},
      {"measurement": "Epoxidation Rate, Propylene oxide", "setting": "[6]; Propylene + 7% methane, 3 Hr", "value": 4.8, "unit": "μmoles/0.5 ml"},
      {"measurement": "Epoxidation Rate, Propylene oxide", "setting": "[6]; Propylene + 15% methane, 1 Hr", "value": 3.5, "unit": "μmoles/0.5 ml"},
      {"measurement": "Epoxidation Rate, Propylene oxide", "setting": "[6]; Propylene + 15% methane, 2 Hr", "value": 6.4, "unit": "μmoles/0.5 ml"},
      {"measurement": "Epoxidation Rate, Propylene oxide", "setting": "[6]; Propylene + 15% methane, 3 Hr", "value": 6.5, "unit": "μmoles/0.5 ml"},
      {"measurement": "Epoxidation Rate, Propylene oxide", "setting": "[6]; Propylene + 20% methane, 1 Hr", "value": 3.8, "unit": "μmoles/0.5 ml"},
      {"measurement": "Epoxidation Rate, Propylene oxide", "setting": "[6]; Propylene + 20% methane, 2 Hr", "value": 7.1, "unit": "μmoles/0.5 ml"},
      {"measurement": "Epoxidation Rate, Propylene oxide", "setting": "[6]; Propylene + 20% methane, 3 Hr", "value": 7.2, "unit": "μmoles/0.5 ml"},
      {"measurement": "Inhibition of epoxidation of propylene to propylene oxide", "setting": "[6]; cell suspension, in the presence of methane", "value": 50, "unit": "%"}
    ]},
    {"smiles": "C=CC", "note": "[Propylene]", "values": [
      {"measurement": "Conversion rate, propylene to propylene oxide", "setting": "[1]", "value": 2.0, "unit": "μmole/hr/mg protein"},
      {"measurement": "Conversion rate, propylene to propylene oxide", "setting": "[2]; [7]", "value": 1.6, "unit": "μmole/hr/mg protein"},
      {"measurement": "Ability to hydroxylate methane or epoxidize C2 -C4 alkenes", "setting": "[2]", "value": "did not possess the ability"},
      {"measurement": "Conversion rate, propylene to propylene oxide", "setting": "[3]; [7]", "value": 2.7, "unit": "μmole/hr/mg protein"},
      {"measurement": "Ability to hydroxylate methane or epoxidize C2 -C4 alkenes", "setting": "[3]", "value": "did not possess the ability"},
      {"measurement": "Conversion rate, propylene to propylene oxide", "setting": "[4]", "value": 1.4, "unit": "μmole/hr/mg protein"},
      {"measurement": "Conversion rate, propylene to propylene oxide", "setting": "[5]", "value": 1.8, "unit": "μmole/hr/mg protein"},
      {"measurement": "Epoxidation Rate, Propylene oxide", "setting": "[6]; propylene alone (control), 1 Hr, 50% O2", "value": 2.0, "unit": "μmoles/0.5 ml"},
      {"measurement": "Epoxidation Rate, Propylene oxide", "setting": "[6]; propylene alone (control), 2 Hr", "value": 3.8, "unit": "μmoles/0.5 ml"}
    ]}
  ]
}
